{
  "source": "paper PMC7559125",
  "about": "(Pathogens, 2020)",
  "key": {"[1]": {"biological_target": "neuraminidase of A/Ibaraki/54/2016 (H275Y/I223K) (Influenza A virus, UniProt A0A0X9QTS2, H275Y/I223K)"}, "[2]": {"biological_target": "neuraminidase of A/Hiroshima/57/2014 (H275Y/I223R) (Influenza A virus, UniProt W8DXJ8, H275Y/I223R)"}, "[3]": {"biological_target": "neuraminidase of A/Yokohama/94/2016 (H275Y) (Influenza A virus, UniProt A0A0X9QTS2, H275Y)"}, "[4]": {"biological_target": "neuraminidase of A/Hiroshima/13/2016 (H275Y/G147R) (Influenza A virus, UniProt A0A0X9QTS2, G147R/H275Y)"}, "[5]": {"biological_target": "neuraminidase of A/Aichi/83/2016 (H275Y) (Influenza A virus, UniProt A0A0X9QTS2, H275Y)"}, "[6]": {"tested_on": "neuraminidase of the dual H275Y mutant viruses"}, "[7]": {"biological_target": "neuraminidase of A/Osaka/8/2014 (H275Y) (Influenza A virus, UniProt W8DXJ8, H275Y)"}, "[8]": {"tested_on": "All viruses tested (dual H275Y, single H275Y, wild-type)"}, "A/Osaka/8/2014 (H275Y) [9]": {"tested_on": "A/Osaka/8/2014 (H275Y)"}, "[10]": {"tested_on": "A/Hiroshima/13/2016 (H275Y/G147R)"}, "A/Aichi/83/2016 (H275Y) [11]": {"tested_on": "A/Aichi/83/2016 (H275Y)"}, "[12]": {"tested_on": "A/Yokohama/94/2016 (H275Y)"}, "[13]": {"tested_on": "A/Ibaraki/54/2016 (H275Y/I223K)"}, "[14]": {"tested_on": "A/Hiroshima/57/2014 (H275Y/I223R)"}, "[15]": {"tested_on": "A/Hiroshima/57/2014 (H275Y/I223R)", "remark": "listed apart in the source"}, "A/Osaka/8/2014 (H275Y) [16]": {"tested_on": "A/Osaka/8/2014 (H275Y)", "remark": "listed apart in the source"}, "[17]": {"tested_on": "A/Ibaraki/54/2016 (H275Y/I223K)", "remark": "listed apart in the source"}, "[18]": {"tested_on": "A/Yokohama/94/2016 (H275Y)", "remark": "listed apart in the source"}, "A/Aichi/83/2016 (H275Y) [19]": {"tested_on": "A/Aichi/83/2016 (H275Y)", "remark": "listed apart in the source"}, "[20]": {"tested_on": "All viruses tested (dual H275Y, single H275Y, wild-type)", "remark": "listed apart in the source"}, "[21]": {"tested_on": "A/Hiroshima/13/2016 (H275Y/G147R)", "remark": "listed apart in the source"}},
  "note": "Like-named read-outs stand apart in the source and are kept apart here.",
  "data": [
    {"smiles": "CCC(CC)[C@H](NC(C)=O)[C@@H]1[C@H](O)[C@@H](C(=O)O)C[C@H]1N=C(N)N.O.O.O", "note": "[Peramivir, peramivir trihydrate]", "values": [
      {"measurement": "Fold-change in IC50 compared with the wild-type virus", "setting": "[1]", "value": "501.62 (7,200) fold"},
      {"measurement": "IC50", "setting": "[1]", "value": 0.502, "unit": "µM"},
      {"measurement": "Fold-change in IC50 compared with the wild-type virus", "setting": "[2]", "value": "944.20 (94,000) fold"},
      {"measurement": "IC50", "setting": "[2]", "value": 0.944, "unit": "µM"},
      {"measurement": "Fold-change in IC50 compared with the wild-type virus", "setting": "[3]", "value": "20.88 (300) fold"},
      {"measurement": "IC50", "setting": "[3]", "value": 0.0209, "unit": "µM"},
      {"measurement": "Fold-change in IC50 compared with the wild-type virus", "setting": "[4]", "value": "114.14 (1,400) fold"},
      {"measurement": "IC50", "setting": "[4]", "value": 0.114, "unit": "µM"},
      {"measurement": "Fold-change in IC50 compared with the wild-type virus", "setting": "[5]", "value": "31.93 (400) fold"},
      {"measurement": "IC50", "setting": "[5]", "value": 0.0319, "unit": "µM"},
      {"measurement": "Susceptibility of the H275Y/I223R, H275Y/I223K and H275Y/G147R mutant viruses (in words)", "setting": "[6]", "value": "enhanced cross-resistance"},
      {"measurement": "Fold-change in IC50 compared with the wild-type virus", "setting": "[7]", "value": "28.25 (2,800) fold"},
      {"measurement": "IC50", "setting": "[7]", "value": 0.0283, "unit": "µM"}
    ]},
    {"smiles": "[H]/N=C(\\N)N[C@H]1C=C(C(=O)O)O[C@@H]([C@H](OC)[C@H](O)CO)[C@@H]1NC(C)=O", "note": "[Laninamivir]", "values": [
      {"measurement": "Susceptibility of the H275Y/G147R mutant virus (in words)", "setting": "[4]", "value": "retained susceptibility"},
      {"measurement": "Susceptibility of the H275Y/I223R and H275Y/I223K mutant viruses (in words)", "setting": "[6]", "value": "reduced susceptibility"}
    ]},
    {"smiles": "O=C1c2c(O)c(=O)ccn2N([C@@H]2c3ccccc3SCc3c2ccc(F)c3F)[C@@H]2COCCN12", "note": "[Baloxavir, Baloxavir acid]", "values": [
      {"measurement": "Susceptibility of all viruses tested (in words)", "setting": "[8]", "value": "susceptible"},
      {"measurement": "Fold-change in IC50 compared with the wild-type virus", "setting": "A/Osaka/8/2014 (H275Y) [9]", "value": "5.10 (1.3) fold"},
      {"measurement": "IC50", "setting": "A/Osaka/8/2014 (H275Y) [9]", "value": 0.0051, "unit": "µM"},
      {"measurement": "Fold-change in IC50 compared with the wild-type virus", "setting": "[10]", "value": "10.59 (1.0) fold"},
      {"measurement": "IC50", "setting": "[10]", "value": 0.0106, "unit": "µM"},
      {"measurement": "Fold-change in IC50 compared with the wild-type virus", "setting": "A/Aichi/83/2016 (H275Y) [11]", "value": "10.18 (0.9) fold"},
      {"measurement": "IC50", "setting": "A/Aichi/83/2016 (H275Y) [11]", "value": 0.0102, "unit": "µM"},
      {"measurement": "Fold-change in IC50 compared with the wild-type virus", "setting": "[12]", "value": "3.49 (0.6) fold"},
      {"measurement": "IC50", "setting": "[12]", "value": 0.00349, "unit": "µM"},
      {"measurement": "Fold-change in IC50 compared with the wild-type virus", "setting": "[13]", "value": "7.24 (1.2) fold"},
      {"measurement": "IC50", "setting": "[13]", "value": 0.00724, "unit": "µM"},
      {"measurement": "Fold-change in IC50 compared with the wild-type virus", "setting": "[14]", "value": "8.34 (2.1) fold"},
      {"measurement": "IC50", "setting": "[14]", "value": 0.00834, "unit": "µM"}
    ]},
    {"smiles": "NC(=O)c1nc(F)c[nH]c1=O", "note": "[Favipiravir, favipiravir]", "values": [
      {"measurement": "EC50", "setting": "[15]", "value": 7.99, "unit": "µM"},
      {"measurement": "Fold-change in EC50 compared with the wild-type virus", "setting": "[15]", "value": "7.99 (1.2) fold"},
      {"measurement": "EC50", "setting": "A/Osaka/8/2014 (H275Y) [16]", "value": 4.76, "unit": "µM"},
      {"measurement": "Fold-change in EC50 compared with the wild-type virus", "setting": "A/Osaka/8/2014 (H275Y) [16]", "value": "4.76 (0.7) fold"},
      {"measurement": "EC50", "setting": "[17]", "value": 10.2, "unit": "µM"},
      {"measurement": "Fold-change in EC50 compared with the wild-type virus", "setting": "[17]", "value": "10.20 (1.0) fold"},
      {"measurement": "EC50", "setting": "[18]", "value": 21.4, "unit": "µM"},
      {"measurement": "Fold-change in EC50 compared with the wild-type virus", "setting": "[18]", "value": "21.40 (2.1) fold"},
      {"measurement": "EC50", "setting": "A/Aichi/83/2016 (H275Y) [19]", "value": 14.8, "unit": "µM"},
      {"measurement": "Fold-change in EC50 compared with the wild-type virus", "setting": "A/Aichi/83/2016 (H275Y) [19]", "value": "14.83 (1.7) fold"},
      {"measurement": "Susceptibility of all viruses tested (in words)", "setting": "[20]", "value": "susceptible"},
      {"measurement": "EC50", "setting": "[21]", "value": 15.1, "unit": "µM"},
      {"measurement": "Fold-change in EC50 compared with the wild-type virus", "setting": "[21]", "value": "15.13 (1.7) fold"}
    ]},
    {"smiles": "CC(=O)N[C@H]1[C@H]([C@H](O)[C@H](O)CO)OC(C(=O)O)=C[C@@H]1N=C(N)N", "note": "[Zanamivir, zanamivir hydrate]", "values": [
      {"measurement": "Susceptibility of the H275Y/I223R, H275Y/I223K and H275Y/G147R mutant viruses (in words)", "setting": "[6]", "value": "reduced susceptibility"}
    ]}
  ]
}
